Laboratory results from patent US7414071B2, “Methods of treatment with selective EP4 receptor agonists” (Pfizer Inc., priority 2002, dated 2008).

Tested on: New Zealand White male rabbits
Assay: In vivo anesthetized rabbit model (hypotensive effect: mean arterial pressure and heart rate)
Description: Methods: New Zealand White male rabbits (3-4 kg) are anesthetized with sodium pentobarbital (30 mg/kg, i.v.) and a surgical plane of anesthesia is maintained by a continuous infusion of sodium pentobarbital (16 mg/kg/hr) via an ear vein catheter. A tracheotomy is performed through a ventral midline cervical incision and the rabbits are ventilated with 100% oxygen using a positive pressure ventilator. Body temperature is maintained at 38.5° C. using a heating pad connected to a YSI temperature controller model 72 (Yellow Springs Instruments, Yellow Springs, […].). Fluid-filled catheters are placed in the right jugular vein (for intravenous drug administration) and in the right carotid artery for arterial pressure monitoring and for blood gas analysis using a model 248 blood gas analyzer (Bayer Diagnostics, Norwood, Mass.). The ventilator is adjusted as needed to maintain blood pH and pCO2 within normal physiological ranges for rabbits. […] Blood is sampled after dosing or during the infusion of the test compound to determine plasma concentrations of the test compounds.
Thus, dosing volumes were 0.2 ml/kg (Group A) subcutaneously or 5 ml/h (Groups B, C, and D) as an intravenous (IV) infusion. The term “mgA” means the number of milligrams adjusted for active compound (e.g. corrected for salt etc.).
Dosing: Four groups (Groups A, B, C, and D) of two rabbits each were dosed as follows.

[1] = Group B, 167 μg/kg/h IV infusion
[2] = Group C, 16.7 μg/kg/h IV infusion

Q: For `O=C([O-])c1ccc(CCCN2C(=O)CC[C@@H]2CC[C@@H](O)Cc2cccc(C(F)(F)F)c2)s1.[Na+]` [Compound 3M sodium salt], which “duration of hemodynamic effect” value (Group A, 1 mgA/kg SC) is on record?
A: sustained over the entire 4 hour post-dose interval

Q: And the “effect on heart rate” value (Group A, 1 mgA/kg SC)?
A: increase in heart rate

Q: And the “effect on mean arterial pressure” value (Group A, 1 mgA/kg SC)?
A: decrease in mean arterial pressure

Q: What about the “onset of hemodynamic effect” value (Group A, 1 mgA/kg SC) of the same compound?
A: < 2 min

Q: And the “mean arterial pressure (MAP)” value (Group A, 1 mgA/kg SC bolus, 5 min post-dose, mean of 2, baseline 92)?
A: 69 mm Hg

Q: What about the “heart rate (HR)” value (Group A, 1 mgA/kg SC bolus, 5 min post-dose, mean of 2, baseline 243) of the same compound?
A: 268 beats/minute

Q: And the “mean arterial pressure (MAP)” value (Group A, 1 mgA/kg SC bolus, 10 min post-dose, mean of 2, baseline 92)?
A: 59 mm Hg

Q: And the “heart rate (HR)” value (Group A, 1 mgA/kg SC bolus, 10 min post-dose, mean of 2, baseline 243)?
A: 283 beats/minute

Q: And the “mean arterial pressure (MAP)” value (Group A, 1 mgA/kg SC bolus, 15 min post-dose, mean of 2, baseline 92)?
A: 60 mm Hg

Q: And the “heart rate (HR)” value (Group A, 1 mgA/kg SC bolus, 15 min post-dose, mean of 2, baseline 243)?
A: 285 beats/minute

Q: And the “mean arterial pressure (MAP)” value (Group A, 1 mgA/kg SC bolus, 30 min post-dose, mean of 2, baseline 92)?
A: 59 mm Hg

Q: And the “heart rate (HR)” value (Group A, 1 mgA/kg SC bolus, 30 min post-dose, mean of 2, baseline 243)?
A: 284 beats/minute

Q: What about the “mean arterial pressure (MAP)” value (Group A, 1 mgA/kg SC bolus, 60 min post-dose, mean of 2, baseline 92) of the same compound?
A: 59 mm Hg

Q: And the “heart rate (HR)” value (Group A, 1 mgA/kg SC bolus, 60 min post-dose, mean of 2, baseline 243)?
A: 288 beats/minute

Q: And the “mean arterial pressure (MAP)” value (Group A, 1 mgA/kg SC bolus, 90 min post-dose, mean of 2, baseline 92)?
A: 59 mm Hg

Q: And the “heart rate (HR)” value (Group A, 1 mgA/kg SC bolus, 90 min post-dose, mean of 2, baseline 243)?
A: 284 beats/minute

Q: What about the “mean arterial pressure (MAP)” value (Group A, 1 mgA/kg SC bolus, 120 min post-dose, mean of 2, baseline 92) of the same compound?
A: 58 mm Hg

Q: What about the “heart rate (HR)” value (Group A, 1 mgA/kg SC bolus, 120 min post-dose, mean of 2, baseline 243) of the same compound?
A: 278 beats/minute

Q: What about the “mean arterial pressure (MAP)” value (Group A, 1 mgA/kg SC bolus, 150 min post-dose, mean of 2, baseline 92) of the same compound?
A: 57 mm Hg

Q: What about the “heart rate (HR)” value (Group A, 1 mgA/kg SC bolus, 150 min post-dose, mean of 2, baseline 243) of the same compound?
A: 275 beats/minute

Q: What about the “mean arterial pressure (MAP)” value (Group A, 1 mgA/kg SC bolus, 180 min post-dose, mean of 2, baseline 92) of the same compound?
A: 60 mm Hg

Q: And the “heart rate (HR)” value (Group A, 1 mgA/kg SC bolus, 180 min post-dose, mean of 2, baseline 243)?
A: 273 beats/minute

Q: And the “mean arterial pressure (MAP)” value (Group A, 1 mgA/kg SC bolus, 210 min post-dose, mean of 2, baseline 92)?
A: 61 mm Hg

Q: What about the “heart rate (HR)” value (Group A, 1 mgA/kg SC bolus, 210 min post-dose, mean of 2, baseline 243) of the same compound?
A: 273 beats/minute

Q: What about the “mean arterial pressure (MAP)” value (Group A, 1 mgA/kg SC bolus, 240 min post-dose, mean of 2, baseline 92) of the same compound?
A: 65 mm Hg

Q: What about the “heart rate (HR)” value (Group A, 1 mgA/kg SC bolus, 240 min post-dose, mean of 2, baseline 243) of the same compound?
A: 273 beats/minute

Q: And the “duration of hemodynamic effect” value [1]?
A: sustained over the entire 4 hour post-dose interval

Q: What about the “effect on heart rate” value [1] of the same compound?
A: increase in heart rate

Q: What about the “effect on mean arterial pressure” value [1] of the same compound?
A: decrease in mean arterial pressure

Q: What about the “onset of hemodynamic effect” value [1] of the same compound?
A: < 2 min

Q: And the “mean arterial pressure (MAP)” value (Group B, 167 μg/kg/hr IV infusion for 4 hours, 5 min, mean of 2, baseline 87)?
A: 67 mm Hg

Q: What about the “heart rate (HR)” value (Group B, 167 μg/kg/hr IV infusion for 4 hours, 5 min, mean of 2, baseline 260) of the same compound?
A: 296 beats/minute

Q: What about the “mean arterial pressure (MAP)” value (Group B, 167 μg/kg/hr IV infusion for 4 hours, 10 min, mean of 2, baseline 87) of the same compound?
A: 67 mm Hg

Q: What about the “heart rate (HR)” value (Group B, 167 μg/kg/hr IV infusion for 4 hours, 10 min, mean of 2, baseline 260) of the same compound?
A: 296 beats/minute

Q: What about the “mean arterial pressure (MAP)” value (Group B, 167 μg/kg/hr IV infusion for 4 hours, 15 min, mean of 2, baseline 87) of the same compound?
A: 69 mm Hg

Q: And the “heart rate (HR)” value (Group B, 167 μg/kg/hr IV infusion for 4 hours, 15 min, mean of 2, baseline 260)?
A: 296 beats/minute

Q: And the “mean arterial pressure (MAP)” value (Group B, 167 μg/kg/hr IV infusion for 4 hours, 30 min, mean of 2, baseline 87)?
A: 68 mm Hg

Q: What about the “heart rate (HR)” value (Group B, 167 μg/kg/hr IV infusion for 4 hours, 30 min, mean of 2, baseline 260) of the same compound?
A: 291 beats/minute

Q: And the “mean arterial pressure (MAP)” value (Group B, 167 μg/kg/hr IV infusion for 4 hours, 60 min, mean of 2, baseline 87)?
A: 67 mm Hg

Q: And the “heart rate (HR)” value (Group B, 167 μg/kg/hr IV infusion for 4 hours, 60 min, mean of 2, baseline 260)?
A: 293 beats/minute

Q: And the “mean arterial pressure (MAP)” value (Group B, 167 μg/kg/hr IV infusion for 4 hours, 90 min, mean of 2, baseline 87)?
A: 57 mm Hg

Q: What about the “heart rate (HR)” value (Group B, 167 μg/kg/hr IV infusion for 4 hours, 90 min, mean of 2, baseline 260) of the same compound?
A: 282 beats/minute

Q: What about the “mean arterial pressure (MAP)” value (Group B, 167 μg/kg/hr IV infusion for 4 hours, 120 min, mean of 2, baseline 87) of the same compound?
A: 55 mm Hg

Q: What about the “heart rate (HR)” value (Group B, 167 μg/kg/hr IV infusion for 4 hours, 120 min, mean of 2, baseline 260) of the same compound?
A: 282 beats/minute

Q: What about the “mean arterial pressure (MAP)” value (Group B, 167 μg/kg/hr IV infusion for 4 hours, 150 min, mean of 2, baseline 87) of the same compound?
A: 52 mm Hg

Q: What about the “heart rate (HR)” value (Group B, 167 μg/kg/hr IV infusion for 4 hours, 150 min, mean of 2, baseline 260) of the same compound?
A: 279 beats/minute

Q: And the “mean arterial pressure (MAP)” value (Group B, 167 μg/kg/hr IV infusion for 4 hours, 180 min, mean of 2, baseline 87)?
A: 53 mm Hg

Q: And the “heart rate (HR)” value (Group B, 167 μg/kg/hr IV infusion for 4 hours, 180 min, mean of 2, baseline 260)?
A: 285 beats/minute

Q: What about the “mean arterial pressure (MAP)” value (Group B, 167 μg/kg/hr IV infusion for 4 hours, 210 min, mean of 2, baseline 87) of the same compound?
A: 56 mm Hg

Q: What about the “heart rate (HR)” value (Group B, 167 μg/kg/hr IV infusion for 4 hours, 210 min, mean of 2, baseline 260) of the same compound?
A: 284 beats/minute

Q: What about the “mean arterial pressure (MAP)” value (Group B, 167 μg/kg/hr IV infusion for 4 hours, 240 min, mean of 2, baseline 87) of the same compound?
A: 55 mm Hg

Q: What about the “heart rate (HR)” value (Group B, 167 μg/kg/hr IV infusion for 4 hours, 240 min, mean of 2, baseline 260) of the same compound?
A: 297 beats/minute

Q: And the “effect on heart rate” value [2]?
A: slight increase in the heart rate

Q: And the “effect on mean arterial pressure” value [2]?
A: slight decrease in mean arterial pressure

Q: And the “mean arterial pressure (MAP)” value (Group C, 16.7 μg/kg/hr IV infusion for 4 hours, 5 min, mean of 2, baseline 95)?
A: 91 mm Hg

Q: And the “heart rate (HR)” value (Group C, 16.7 μg/kg/hr IV infusion for 4 hours, 5 min, mean of 2, baseline 291)?
A: 289 beats/minute

Q: What about the “mean arterial pressure (MAP)” value (Group C, 16.7 μg/kg/hr IV infusion for 4 hours, 10 min, mean of 2, baseline 95) of the same compound?
A: 86 mm Hg

Q: And the “heart rate (HR)” value (Group C, 16.7 μg/kg/hr IV infusion for 4 hours, 10 min, mean of 2, baseline 291)?
A: 299 beats/minute

Q: What about the “mean arterial pressure (MAP)” value (Group C, 16.7 μg/kg/hr IV infusion for 4 hours, 15 min, mean of 2, baseline 95) of the same compound?
A: 84 mm Hg

Q: And the “heart rate (HR)” value (Group C, 16.7 μg/kg/hr IV infusion for 4 hours, 15 min, mean of 2, baseline 291)?
A: 302 beats/minute

Q: And the “mean arterial pressure (MAP)” value (Group C, 16.7 μg/kg/hr IV infusion for 4 hours, 30 min, mean of 2, baseline 95)?
A: 84 mm Hg

Q: What about the “heart rate (HR)” value (Group C, 16.7 μg/kg/hr IV infusion for 4 hours, 30 min, mean of 2, baseline 291) of the same compound?
A: 306 beats/minute

Q: What about the “mean arterial pressure (MAP)” value (Group C, 16.7 μg/kg/hr IV infusion for 4 hours, 60 min, mean of 2, baseline 95) of the same compound?
A: 85 mm Hg

Q: And the “heart rate (HR)” value (Group C, 16.7 μg/kg/hr IV infusion for 4 hours, 60 min, mean of 2, baseline 291)?
A: 300 beats/minute

Q: What about the “mean arterial pressure (MAP)” value (Group C, 16.7 μg/kg/hr IV infusion for 4 hours, 90 min, mean of 2, baseline 95) of the same compound?
A: 83 mm Hg
